According to patent publication US20220306623A1, “PYRIDYL OR PYRIMIDYL MTOR KINASE INHIBITORS” (GLAXOSMITHKLINE INTELLECTUAL PROPERTY DEVELOPMENT LIMITED, priority 2019, published 2022):

How the values were obtained:
[1] = system: type I collagen deposition in primary lung fibroblasts derived from human tissue; test: Type I collagen deposition (scar-in-a-jar) high content screening assay; type: cell-based; conditions: Primary lung fibroblast, 72 h, human pulmonary fibroblasts, 96-well, TGFβ-1 1 ng/ml 72 h, collagen intensity, read-out: mean pIC50, type I collagen deposition (scar-in-a-jar) (converted)
Method: Cellular type I collagen deposition was measured by adapting a published method; scar-in-a-jar (Chen et al., 2009) to primary lung fibroblasts derived from human tissue and combining with high content analysis to permit fluorescent quantification of collagen deposited in the extracellular matrix (ECM). The human biological samples were sourced ethically and their research use was in accord with the terms of the informed consents under an IRB/EC approved protocol. Human pulmonary fibroblasts were maintained in DMEM media (Gibco, Catalogue No 21969) supplemented with 4 mM L-glutamine (Gibco Catalogue No 25030-024) and 100/heat inactivated FBS (Gibco #10270-106, Lot #42F6663K) at 37° C. in 10%/CO2. Cells were harvested and seeded at 10,000 cells per well (85 μL/well) into black walled 96 well imaging plates (BD Falcon, 353219) in assay media (0.4%/heat inactivated FBS, 4 mM L-glutamine) and incubated overnight at 37° C., 10%/CO2.
Test compounds were dissolved in 1000/DMSO to give 10 mM stocks which were further diluted (serial 1:3) to generate 10 point concentration response curves. Assay media was supplemented with 112.5 mg/ml Ficoll 70 (Sigma, Catalogue No F2878), 75 mg/ml Ficoll 400 (Sigma, Catalogue No F4375) and 50 µg/ml ascorbic acid (Sigma, Catalogue No A8960). 3 μL compound were added to 297 μL assay media (10× compound final concentration in 1% DMSO).
Diluted compounds (15 μL) were transferred to plates containing cells and incubated for 3 h at 37° C. in 10% CO2. Transforming growth factor (TGF)β-1 (R&D Systems, Catalogue No 100-B/CF) was reconstituted according to manufacturer's instructions to give 10 µg/mL (stock) and further diluted (1 in 3333) in assay media containing Ficoll and ascorbic acid. 50 μL TGFβ-1 was added to cell plates (1 ng/ml final) and cells incubated for 72 h at 37° C. in 10% CO2.
Media was removed and cells were fixed with 50 µL/well 100% ice-cold methanol (2 min). Methanol was decanted and cells washed with PBS (3×). To permeabilise, cells were incubated with PBS containing 0.1% Triton X 100 for 90 sec, followed by PBS wash (3×). Cells were incubated with mouse anti human type I collagen monoclonal antibody (Sigma, Catalogue No C2456) diluted 1:1000 in PBS overnight at 4° C. Cells were washed with PBS containing 0.05% Tween-20 (3×) and incubated with secondary alexa fluor 488 goat-anti-mouse antibody (Invitrogen, Catalogue No A11001, 1 in 500 in PBS) and Hoechst 33342 (Sigma, Catalogue No H21492), 1 in 10000 in PBS) for 1 h at RT, prior to washing with PBS containing 0.05% Tween (×3) before finally adding 200 µL/well PBS.
Type I collagen immunoreactivity was detected using the Thermofisher CellInsight NXT set to excitation and emission wavelengths for DAPI and FITC with exposure adjusted to appropriate levels. Images were analysed using Cellomics Studio software (Version 6.6.0, build 8153) and computational algorithms to quantify “collagen intensity” and “cell count”.
Data analysis was performed by determining % response values for test compounds relative to the maximum (TGFβ-1 stimulation) fitting a ‘log(inhibitor) vs. response-Variable slope (four parameters)’ curve and recording pIC50 (inverse of Log IC50) values for test compounds.

[2] = system: phosphorylated Akt at serine 473 (pAKTs473) in primary lung fibroblasts derived from explanted tissue; test: Phosphorylated Akt (Ser473) in vitro immunoassay (MSD), fibroblasts from explanted tissue; type: cell-based; conditions: Homo sapiens, Primary lung fibroblast, 96-well, compound 2 h, PDGF-BB 10 ng/ml 15 min, read-out: mean pIC50, pAKTs473 immunoassay (converted)
Source text: Immunoassay using the Meso Scale Discovery (MSD) platform to measure the effect of test compounds on phosphorylated Akt at serine 473 (pAKTs473) in primary lung fibroblasts derived from explanted tissue. The human biological samples were sourced ethically and their research use was in accord with the terms of the informed consents under an IRB/EC approved protocol.
Human lung fibroblasts were routinely maintained in Dulbecco's Modified Eagle Medium (DMEM; Gibco, catalogue no. 21969-035) supplemented with 10% foetal bovine serum (FBS (heat-inactivated); Gibco, catalogue no. 10270-106) and 4 mM L-glutamine (Gibco, catalogue no. 25030024) at 37° C. in 10% CO2.
For the assay, cells were harvested using Trypsin/EDTA (Gibco, catalogue no. 25300-062), resuspended to give 1.2×10^5 cells/ml and 100 ul/well seeded into 96-well plates (Corning, Catalogue No. 3596) in DMEM supplemented with 0.4% FCS and 4 mM L-glutamine and incubated overnight at 37° C. in 10% CO2.
Test compounds were dissolved in 100% DMSO to give 10 mM stock solutions and serially diluted to generate a 10-point concentration response curve. Compounds were further diluted 100-fold into 96-well V-bottom polypropylene plates (Greiner, Catalogue no. 651201) with DMEM supplemented with 0.4% FCS and 4 mM L-glutamine to give 100 µM top compound concentration in 1% DMSO.
Compounds were further diluted 10-fold by transfer to 96-well plates containing cells ([…] top concentration, 0.1% DMSO final) and incubated for 2 h at 37° C. in 10% CO2, prior to stimulation with platelet-derived growth factor (PDGF)-BB (Gibco, Catalogue no. PHG0041) at 10 ng/ml (final) for 15 min at 37° C. in 10% CO2. Cell assay plates were then incubated on ice and treated with lysis buffer (Cell Signalling Technology, Catalogue No. 9803) containing protease and phosphatase inhibitors (Halt, Thermo Scientific, Catalogue No. 78444) for 30 min.
MSD plates (MSD, Phospho(Ser473)/Total Akt Whole Cell Lysate Kit, Catalogue No. K15100D-3) were blocked with 1×blocking buffer as per the manufacturer's instructions at RT with shaking, followed by washing (×3) with Tris-buffered saline containing 0.05% Tween-20 (TBST). Cell lysates (30 ul) were added and MSD plates incubated for 1 h at RT with shaking.
Plates were washed with TBST (×3), prior to addition of SULFO-TAG Anti-Total Akt Antibody as per the manufacturer's instructions and shaken at RT for 1 h. After washing with 1×TBST (×3), read buffer (1×) (MSD, Catalogue No. R92TC-1) was added as per the manufacturer's instructions before detecting electrochemiluminescence (MSD Sector Imager 600).
Data analysis was performed using non-linear regression analysis to determine IC50 values for test compounds. Minimum (no PDGF-BB stimulation) and maximum responses (+PDGF-BB stimulation) were monitored for assay quality control.

Row | SMILES | IC50 [1] | IC50 [2]
1 | CC[C@H]1COCCN1c1cc(CS(=O)(=O)N(CC)CC)nc(-c2ccc3[nH]c(CNC)cc3n2)n1 [Example 30, (S)—N,N-diethyl-1-(6-(3-ethylmorpholino)-2-(2-((methylamino)methyl)-1H-pyrrolo[3,2-b]pyridin-5-yl)pyrimidin-4-yl)methanesulfonamide] | < 3.98 µM | 
2 | CCCS(=O)(=O)Cc1cc(N2CCOC[C@@H]2CC)nc(-c2ccc3[nH]c(CNC)cc3n2)n1 [Example 32, (S)-1-(5-(4-(3-ethylmorpholino)-6-((propylsulfonyl)methyl)pyrimidin-2-yl)-1H-pyrrolo[3,2-b]pyridin-2-yl)-N-methylmethanamine] | < 3.98 µM | < 0.1 µM
3 | CC[C@H]1COCCN1c1cc(CS(=O)(=O)CC)nc(-c2ccc3[nH]c(CNC)cc3n2)n1 [Example 33, (S)-1-(5-(4-(3-ethylmorpholino)-6-((ethylsulfonyl)methyl)pyrimidin-2-yl)-1H-pyrrolo[3,2-b]pyridin-2-yl)-N-methylmethanamine] | < 3.98 µM | 
